# Patent US20220281848A1, “PYRAZOLE-SUBSTITUTED PYRROLIDINONES AS HERBICIDES” (FMC Corporation, priority 2019, published 2022)
# System: plants
# Test: Test D pre-emergence, other plants of Tables D1 and D3
# Format: in vivo
# Conditions: for damage to plant, ALOMY / damage to plant, AVEFA / damage to plant, BEAVA / damage to plant, BROTE / damage to plant, BRSNN / damage to plant, CHEAL / damage to plant, GALAP / damage to plant, HORVW / damage to plant, KCHSC / damage to plant, LOLPE / damage to plant, POAAN / damage to plant, POLCO / damage to plant, SINAR / damage to plant, STEME / damage to plant, VERPE: pre-emergence, 100=total damage, 0=no damage
# Experimental: A formulation containing 50 g/L of the test chemical was prepared by dissolving the active ingredient in a mixture of organic solvents and emulsifier, details of which are provided in the table. This formulation was then mixed with a small, variable amount of acetone to aid dissolution, before addition of a 0.2% v/v aqueous solution of an adjuvant, as the aqueous diluent, to form an aqueous spray solution which contains a predetermined concentration of the active ingredient.
# This aqueous spray solution was then sprayed onto plants including maize and wheat that had been seed treated with a herbicide safener, after one day's cultivation (for pre-emergence) or after about 12 days' cultivation (for post-emergence). The plants were grown from seeds sown in standard soil, placed in a glasshouse under controlled conditions (at 24/18° C. or 20/16° C., day/night; 16 h light; 65% humidity). After spray application the plants were then grown in a glasshouse under the same conditions and watered twice daily. After 15 d for post-emergence and 20 DAA for pre-emergence the test was evaluated (100=total damage to plant; 0=no damage to plant).
structure (smiles),measurement,setting,value
CN1CC(c2cc(C(F)(F)F)n(C)n2)C(C(=O)Nc2ccccc2F)C1=O (racemic) [Compound 9],"damage to plant (100=total damage to plant; 0=no damage to plant), SORVU","SORVU, preemergent, rate 500, 20 DAA",0
same,"damage to plant, ALOMY","rate 15, 20 DAA",0
same,"damage to plant, AVEFA","rate 15, 20 DAA",0
same,"damage to plant, BEAVA","rate 15, 20 DAA",0
same,"damage to plant, BROTE","rate 15, 20 DAA",0
same,"damage to plant, BRSNN","rate 15, 20 DAA",0
same,"damage to plant, CHEAL","rate 15, 20 DAA",0
same,"damage to plant, GALAP","rate 15, 20 DAA",0
same,"damage to plant, HORVW","rate 15, 20 DAA",0
same,"damage to plant, KCHSC","rate 15, 20 DAA",0
same,"damage to plant, LOLPE","rate 15, 20 DAA",0
same,"damage to plant, POAAN","rate 15, 20 DAA",0
same,"damage to plant, POLCO","rate 15, 20 DAA",0
same,"damage to plant, SINAR","rate 15, 20 DAA",0
same,"damage to plant, STEME","rate 15, 20 DAA",0
same,"damage to plant, VERPE","rate 15, 20 DAA",0
same,"damage to plant, ALOMY","rate 30, 20 DAA",0
same,"damage to plant, AVEFA","rate 30, 20 DAA",0
same,"damage to plant, BEAVA","rate 30, 20 DAA",0
same,"damage to plant, BROTE","rate 30, 20 DAA",0
same,"damage to plant, BRSNN","rate 30, 20 DAA",0
same,"damage to plant, CHEAL","rate 30, 20 DAA",0
same,"damage to plant, GALAP","rate 30, 20 DAA",0
same,"damage to plant, HORVW","rate 30, 20 DAA",0
same,"damage to plant, KCHSC","rate 30, 20 DAA",0
same,"damage to plant, LOLPE","rate 30, 20 DAA",0
same,"damage to plant, POAAN","rate 30, 20 DAA",0
same,"damage to plant, POLCO","rate 30, 20 DAA",0
same,"damage to plant, SINAR","rate 30, 20 DAA",0
same,"damage to plant, STEME","rate 30, 20 DAA",0
same,"damage to plant, VERPE","rate 30, 20 DAA",0
same,"damage to plant, ALOMY","rate 60, 20 DAA",0
same,"damage to plant, AVEFA","rate 60, 20 DAA",0
same,"damage to plant, BEAVA","rate 60, 20 DAA",0
same,"damage to plant, BROTE","rate 60, 20 DAA",0
same,"damage to plant, BRSNN","rate 60, 20 DAA",0
same,"damage to plant, CHEAL","rate 60, 20 DAA",0
same,"damage to plant, GALAP","rate 60, 20 DAA",0
same,"damage to plant, HORVW","rate 60, 20 DAA",0
same,"damage to plant, KCHSC","rate 60, 20 DAA",0
same,"damage to plant, LOLPE","rate 60, 20 DAA",0
same,"damage to plant, POAAN","rate 60, 20 DAA",0
same,"damage to plant, POLCO","rate 60, 20 DAA",0
same,"damage to plant, SINAR","rate 60, 20 DAA",0
same,"damage to plant, STEME","rate 60, 20 DAA",0
same,"damage to plant, VERPE","rate 60, 20 DAA",0
same,"damage to plant, ALOMY","rate 130, 20 DAA",0
same,"damage to plant, AVEFA","rate 130, 20 DAA",0
same,"damage to plant, BEAVA","rate 130, 20 DAA",0
same,"damage to plant, BROTE","rate 130, 20 DAA",0
same,"damage to plant, BRSNN","rate 130, 20 DAA",0
same,"damage to plant, CHEAL","rate 130, 20 DAA",0
same,"damage to plant, GALAP","rate 130, 20 DAA",0
same,"damage to plant, HORVW","rate 130, 20 DAA",0
same,"damage to plant, KCHSC","rate 130, 20 DAA",0
same,"damage to plant, LOLPE","rate 130, 20 DAA",0
same,"damage to plant, POAAN","rate 130, 20 DAA",10
same,"damage to plant, POLCO","rate 130, 20 DAA",0
same,"damage to plant, SINAR","rate 130, 20 DAA",0
same,"damage to plant, STEME","rate 130, 20 DAA",0
same,"damage to plant, VERPE","rate 130, 20 DAA",0
same,"damage to plant, ALOMY","rate 250, 20 DAA",0
same,"damage to plant, AVEFA","rate 250, 20 DAA",10
same,"damage to plant, BEAVA","rate 250, 20 DAA",0
same,"damage to plant, BROTE","rate 250, 20 DAA",0
same,"damage to plant, BRSNN","rate 250, 20 DAA",0
same,"damage to plant, CHEAL","rate 250, 20 DAA",0
same,"damage to plant, GALAP","rate 250, 20 DAA",0
same,"damage to plant, HORVW","rate 250, 20 DAA",0
same,"damage to plant, KCHSC","rate 250, 20 DAA",0
same,"damage to plant, LOLPE","rate 250, 20 DAA",30
same,"damage to plant, POAAN","rate 250, 20 DAA",10
same,"damage to plant, POLCO","rate 250, 20 DAA",0
same,"damage to plant, SINAR","rate 250, 20 DAA",0
same,"damage to plant, STEME","rate 250, 20 DAA",10
same,"damage to plant, VERPE","rate 250, 20 DAA",0
same,"damage to plant, ALOMY","rate 500, 20 DAA",0
same,"damage to plant, AVEFA","rate 500, 20 DAA",20
same,"damage to plant, BEAVA","rate 500, 20 DAA",0
same,"damage to plant, BROTE","rate 500, 20 DAA",0
same,"damage to plant, BRSNN","rate 500, 20 DAA",0
same,"damage to plant, CHEAL","rate 500, 20 DAA",0
same,"damage to plant, GALAP","rate 500, 20 DAA",10
same,"damage to plant, HORVW","rate 500, 20 DAA",0
same,"damage to plant, KCHSC","rate 500, 20 DAA",0
same,"damage to plant, LOLPE","rate 500, 20 DAA",20
same,"damage to plant, POAAN","rate 500, 20 DAA",50
same,"damage to plant, POLCO","rate 500, 20 DAA",0
same,"damage to plant, SINAR","rate 500, 20 DAA",0
same,"damage to plant, STEME","rate 500, 20 DAA",80
same,"damage to plant, VERPE","rate 500, 20 DAA",0
